58 compounds from article PMC12040169 (PLOS Biology, 2025) can be followed below.

The data set in a line: in vitro. Particulars: human, hela cells, % viability.

For `COc1cc(C(=O)Nc2ccc(N3CCN(C)CC3)cc2)ccc1OCc1ccc(Cl)cc1` [CBK266116], the viability at 28.5 h, 10 µM came to 99%.

Consider `Cc1c([N+](=O)[O-])c([N+](=O)[O-])nn1CC(=O)NCc1cccnc1` [CBK262428], for which the viability at 28.5 h, 10 µM (bulk resorufin, single well) came to 97.2%.

Take `NCc1ccc(CN(Cc2ccc(-c3ccccc3)cc2)C(=O)Nc2ccccc2C(F)(F)F)cc1` [CBK046116C]: the viability at 28.5 h, 10 µM was 86.3%.

For the compound `COc1ccc(Br)cc1S(=O)(=O)Nc1ccsc1C(=O)Nc1ccc(F)cc1` [CBK004593], the viability at 28.5 h, 10 µM came to 97.7%.

For `Cc1cc(NC(=O)c2ccc3c(c2)OCCO3)c2ccccc2n1` [CBK122739], the viability at 28.5 h, 10 µM came out at 103%.

With `Cc1nc(S(=O)(=O)CC2CCCO2)n(CC(C)C)c1C` (stereo not shown) [CBK304882], the viability at 28.5 h, 10 µM was determined as 116%.

On to `O=C(O)CSc1nc(O)c2c(-c3ccccc3)csc2n1` [CBK268067], for which the viability at 28.5 h, 10 µM was determined as 107%.

Consider `c1cncc(-c2cn3ccnc3c(NCC3CC3)n2)c1` [CBK036609], for which the viability at 28.5 h, 10 µM turned out to be 84%.

Turning to `CC(C)CN(CC(N)=O)CC(=O)NC1(c2ccccc2)CCC1` [CBK066883T], the viability at 28.5 h, 10 µM worked out at 88.9%.

Consider `CN1CCN(CCC(=O)N/N=C/c2cccc(Br)c2)CC1` [CBK261496], for which the viability at 28.5 h, 10 µM is 96.6%.

With `Nc1cc2cccnc2nc1-c1ccncc1` [CBK067601], the viability at 28.5 h, 10 µM came to 96.5%.

On to `OCCN(Cc1cccnc1)CC1(c2ccc(Cl)cc2)CC1` [CBK282943], for which the viability at 28.5 h, 10 µM amounted to 101%.

Consider `Cc1ccc(Nc2nc(N3CCOCC3)nc3nccnc23)cc1` [CBK287664], for which the viability at 28.5 h, 10 µM stood at 120%.

As to `OCc1cccc(-c2nccnc2NCc2ccc(F)cc2)c1` [CBK037670], the viability at 28.5 h, 10 µM was 103%.

As to `COc1cc(-c2cncc(N(CCO)CCO)n2)cc(OC)c1OC` [CBK065544], the viability at 28.5 h, 10 µM worked out at 112%.

As for `O=C(Nc1cccc(-c2nc3ncccc3o2)c1)c1ccc(OCc2ccccc2)cc1` [CBK263139], the viability at 28.5 h, 10 µM amounted to 102%.

As for `C=C(Br)Cn1c(COc2cccc3ccccc23)nc2ccccc21` [CBK263373], the viability at 28.5 h, 10 µM amounted to 97.3%.

With `COc1ccc(C(=O)CSc2nnc(-c3ccccc3)c3ccccc23)cc1OC` [CBK297088], the viability at 28.5 h, 10 µM came to 93.3%.

Regarding `COc1ccc(CN2CCc3cc(OC)c(OC)cc3C2c2ccccc2)cc1CO` (stereo not shown) [CBK286358], the viability at 28.5 h, 10 µM was determined as 92.2%.

In the case of `CC(C)(CNS(=O)(=O)c1ccc(Cl)cc1)OCc1ccccc1` [CBK262088], the viability at 28.5 h, 10 µM was determined as 91.4%.

On to `OC(CSc1ccccc1)CN1CCN(C(c2ccccc2)c2ccccc2)CC1` (stereo not shown) [CBK074683], for which the viability at 28.5 h, 10 µM came out at 91.3%.

Consider `Cc1cc(N2CCCC2=O)cc(C)c1S(N)(=O)=O` [CBK288458], for which the viability at 28.5 h, 10 µM amounted to 89.9%.

On to `Cc1cc(S(=O)(=O)NCC(C)n2nc(C)c(C)c2C)ccc1F` (stereo not shown) [CBK282010], for which the viability at 28.5 h, 10 µM came to 87.4%.

As to `Cn1cc(C(=O)Nc2cccc(S(=O)(=O)N3CCCCCC3)c2)cn1` [CBK305715], the viability at 28.5 h, 10 µM is 87.2%.

As for `COc1ccc(S(=O)(=O)N2CCN(C(=S)Nc3ccc(S(N)(=O)=O)cc3)CC2)cc1` [CBK266898], the viability at 28.5 h, 10 µM is 92.6%.

As to `COCCOC(=O)C1=C(C)N(c2ccc(C(=O)O)cc2)C(=O)NC1c1ccccc1Cl` (stereo not shown) [CBK296986], the viability at 28.5 h, 10 µM is 97%.

As to `Cn1c(CCNC(=O)c2cccs2)nc2cc([N+](=O)[O-])ccc21` [CBK268511], the viability at 28.5 h, 10 µM came to 83%.

`CC(C(=O)Nc1c(F)cc(F)cc1OC1CCNCC1)c1ccccc1` (stereo not shown) [CBK045896T]: the viability at 28.5 h, 10 µM amounted to 103%.

As for `CCC(CCC(=O)Nc1ccccc1Cl)C(=O)O` (stereo not shown) [CBK286767], the viability at 28.5 h, 10 µM was 86.8%.

Consider `CCCCN=C(NCCCn1cccn1)N1CCCN(C(C)=O)CC1` [CBK304273I], for which the viability at 28.5 h, 10 µM is 107%.

For the compound `CC(=O)c1[nH]c(C)c(C(=O)N(C)Cc2cc(-c3ccncc3)no2)c1C` [CBK306681], the viability at 28.5 h, 10 µM turned out to be 97%.

For `CC1(C)[C@H](Cc2cc(CC3CCCCC3)on2)C[C@@H]1NC(=O)N1CCOCC1` [CBK289258], the viability at 28.5 h, 10 µM worked out at 98.6%.

As for `O=C(COC(=O)c1ccc2c(c1)C(=O)N(c1cccc(Cl)c1)C2=O)c1ccc(Br)cc1` [CBK262324], the viability at 28.5 h, 10 µM stood at 94%.

For the compound `O=C(O)CCn1ncc2ccccc21` [CBK262257], the viability at 28.5 h, 10 µM amounted to 89.8%.

With `O=C(O)c1ccc(NC2CCS(=O)(=O)C2)cc1` (stereo not shown) [CBK287168], the viability at 28.5 h, 10 µM was found to be 82.3%.

In the case of `CC(C)Nc1cncc(OC2CCN(C)C2)n1` (stereo not shown) [CBK115598], the viability at 28.5 h, 10 µM was 90.8%.

Take `Cc1c(C(=O)N(C(C)C)C2CC2)nnn1-c1ccc2ncccc2c1` [CBK305518]: the viability at 28.5 h, 10 µM was 92.5%.

As to `CCNC(=O)COc1ccc(C=Cc2nc(-c3ccccc3)c(C(=O)O)s2)cc1OCC` [CBK296644], the viability at 28.5 h, 10 µM was found to be 94.6%.

On to `COc1ccc(-c2csc(/C(C#N)=C/Nc3ccc(S(=O)(=O)Nc4nccs4)cc3)n2)cc1` [CBK262374], for which the viability at 28.5 h, 10 µM came to 94.6%.

Regarding `CN(C)c1ccc(-c2nccnc2NS(=O)(=O)c2ccc(C(F)(F)F)cc2)cc1` [CBK050802], the viability at 28.5 h, 10 µM came out at 95.1%.

For `Cc1cccc(-n2ncc3c(=O)n(CC(=O)NC4CCCCC4)cnc32)c1C` [CBK287694], the viability at 28.5 h, 10 µM is 104%.

Regarding `CCc1cc(C(=O)OC)c(NC(=O)CC2Nc3cccc4cccc(c34)NC2=O)s1` (stereo not shown) [CBK267563], the viability at 28.5 h, 10 µM worked out at 59.8%.

For `CC1=Nc2c(ccc3nsnc23)NC(=O)C1` [CBK019676], the viability at 28.5 h, 10 µM is 97.1%.

`Fc1ccc([C@@H]2CN(Cc3ccccn3)C[C@H]2c2cc[nH]n2)cc1` [CBK285416]: the viability at 28.5 h, 10 µM worked out at 104%.

With `O=C(NCCN1CCOCC1)N(c1ccccc1)c1ccccc1` [CBK270057], the viability at 28.5 h, 10 µM is 92.8%.

As for `O=C(Cn1c(=O)oc2ccccc21)Nc1ccc(S(=O)(=O)Nc2nccs2)cc1` [CBK267686], the viability at 28.5 h, 10 µM was 80.2%.

`CCN1CC2(CCN(CC3CC3)CC2)c2ccccc21` [CBK136987]: the viability at 28.5 h, 10 µM came to 92.6%.

In the case of `Clc1cc(Nc2ccc3[nH]ccc3c2)n2nccc2n1` [CBK037009], the viability at 28.5 h, 10 µM is 84.7%.

Take `OC(COCc1ccccc1)CN1CCN(Cc2ccccc2)CC1` (stereo not shown) [CBK278297C]: the viability at 28.5 h, 10 µM is 107%.

In the case of `CCCCC(=O)NCCc1ccc(S(N)(=O)=O)cc1` [CBK288360], the viability at 28.5 h, 10 µM was found to be 91.5%.

Take `CCc1nn(Cc2ccccn2)c(=O)c2cc3sc(C)cc3n12` [CBK284113]: the viability at 28.5 h, 10 µM came to 77%.

With `OC(CSc1ccc(F)cc1)CN1CCN(c2ccc(C(F)(F)F)cn2)CC1` (stereo not shown) [CBK074688], the viability at 28.5 h, 10 µM came to 91.2%.

Turning to `O=C(CN1CCCCC1)Nc1ccc(NC(=O)CN2CCCCC2)c(Cl)c1` [CBK264173], the viability at 28.5 h, 10 µM stood at 111%.

Consider `Fc1ccc(-c2n[nH]c(=S)n2CCCN2CCOCC2)cc1` [CBK267127], for which the viability at 28.5 h, 10 µM came to 100%.

Take `CC12CCC(=O)N1CCCN2` (stereo not shown) [CBK067102T]: the viability at 28.5 h, 10 µM stood at 94.5%.

Consider `COc1cc(CN2CCN(Cc3ccccc3F)CC2)cc(OC)c1O` [CBK264219], for which the viability at 28.5 h, 10 µM worked out at 95.9%.

For `CN1CCN(C(=O)c2ccc(-c3ccccc3)nc2NCCc2ccccn2)CC1` [CBK076550], the viability at 28.5 h, 10 µM was 93.3%.

As to `COc1ccc(CCNC(=O)CN2CCCCC2C)cc1` (stereo not shown) [CBK304827], the viability at 28.5 h, 10 µM is 94.4%.
